A word on the Ki: it is a measure of affinity in units of concentration, obtained from inhibition or displacement.

In one test the target is Carbonic anhydrase 2 (Homo sapiens, UniProt P00918).
Another test has as its target Carbonic anhydrase 9 (Homo sapiens, UniProt Q16790).

Description for Carbonic anhydrase 2: Inhibition of human recombinant isozyme CA2 by CO2 hydration method
Description for Carbonic anhydrase 9: Inhibition of catalytic domain of human recombinant isozyme CA9 by CO2 hydration method

Regarding `CC(=O)OC[C@H]1O[C@H](O[C@H]2[C@H](OC(C)=O)[C@@H](OC(C)=O)[C@H](OCc3cn(-c4ccc(S(N)(=O)=O)cc4)nn3)O[C@@H]2COC(C)=O)[C@H](OC(C)=O)[C@@H](OC(C)=O)[C@@H]1OC(C)=O`, on Carbonic anhydrase 2, the Ki was found to be 7.8 nM.
`NS(=O)(=O)c1ccc(-n2cc(CO[C@@H]3O[C@H](CO)[C@@H](O[C@H]4O[C@H](CO)[C@@H](O)[C@H](O)[C@H]4O)[C@H](O)[C@H]3O)nn2)cc1` yielded a Ki on Carbonic anhydrase 9 of 84 nM.
In turn, `NS(=O)(=O)c1ccc(-n2cc(CO[C@@H]3O[C@H](COCc4ccccc4)[C@@H](OCc4ccccc4)[C@H]3OCc3ccccc3)nn2)cc1` registered a Ki at Carbonic anhydrase 2 of 7.6 nM.
Consider `CC(=O)OC[C@H]1O[C@@H](OCc2cn(-c3ccc(S(N)(=O)=O)cc3)nn2)[C@H](OC(C)=O)[C@@H](OC(C)=O)[C@H]1OC(C)=O`, for which affinity on Carbonic anhydrase 9 was put at a Ki of 9.7 nM.
Regarding `[N-]=[N+]=Nc1ccc(S(N)(=O)=O)cc1`, the Ki at Carbonic anhydrase 9 came to 105 nM.
`NS(=O)(=O)c1ccc(-n2cc(COC3OC[C@@H](O)[C@@H](O)[C@@H]3O)nn2)cc1` (some centres undefined): the Ki on Carbonic anhydrase 9 turned out to be 103 nM; on Carbonic anhydrase 2, 6.9 nM.
`CC(=O)OC[C@H]1O[C@@H](OCc2cn(-c3ccc(S(N)(=O)=O)cc3)nn2)[C@H](OC(C)=O)[C@@H](OC(C)=O)[C@@H]1OC(C)=O` registered a Ki at Carbonic anhydrase 9 of 107 nM.
On Carbonic anhydrase 9, `NS(=O)(=O)c1ccc(-n2cc(CO[C@@H]3O[C@H](CO)[C@@H](O)[C@H](O)[C@H]3O)nn2)cc1` showed a Ki of 101 nM.
`NS(=O)(=O)c1ccc(-n2cc(CO[C@@H]3O[C@H](CO)[C@H](O)[C@H](O)[C@H]3O)nn2)cc1`: the inhibition constant (Ki) is 120 nM at Carbonic anhydrase 9 and 53 nM at Carbonic anhydrase 2.
On the same counts, the results for `CC(=O)O[C@H]1[C@H](OC(C)=O)C(OCc2cn(-c3ccc(S(N)(=O)=O)cc3)nn2)OC[C@H]1OC(C)=O` (some centres undefined) are 72 nM and 9.3 nM.
For `NS(=O)(=O)c1ccc(-n2cc(CO[C@@H]3O[C@H](CO)[C@@H](O)[C@H]3O)nn2)cc1`, at Carbonic anhydrase 9, the affinity, expressed as Ki, was 69 nM.
